Assay results published in US9458153B2, “Dihydroquinolizinones for the treatment and prophylaxis of hepatitis B virus infection” (Hoffmann-La Roche Inc., priority 2014, dated 2016).

Tests used:
HBV DNA = HBV DNA assay (real-time qPCR/TaqMan of extracellular HBV DNA copy number, HepG2.2.15 cells); type: cell-based; conditions: Anti HBV DNA production activity in HepG2.2.15 cells, supernatant collected six days after initial administration
Description: HepG2.2.15 cells (Acs et al. Proc Natl Acad Sci USA, 84, (1987), 4641-4), a constitutively HBV-expressing cell line were cultured in DMEM+Glutamax-I medium (Invitrogen, Carlsbad, Calif., USA), supplemented with 10% fetal bovine serum (Invitrogen) and G418 (Invitrogen) at a final concentration of 200 mg/L and maintained in 5% CO2 at 37° C.
The assay employs real-time qPCR (TaqMan) to directly measure extracellular HBV DNA copy number. HepG2.2.15 cells were plated in 96-well microtiter plates. Only the interior wells were utilized to reduce “edge effects” observed during cell culture, the exterior wells were filled with complete medium to help minimize sample evaporation. On the following day, the HepG2.2.15 cells were washed and the medium was replaced with complete medium containing various concentrations of a test compound in triplicate. 3TC was used as the positive control, while media alone was added to cells as a negative control (virus control, VC). Three days later, the culture medium was replaced with fresh medium containing the appropriately diluted drug. Six days following the initial administration of the test compound, the cell culture supernatant was collected, treated with pronase and then used in a real-time qPCR/TaqMan assay to determine HBV DNA copy numbers. Antiviral activity was calculated from the reduction in HBV DNA levels (IC50).
The compounds of the present invention were tested for their capacity to inhibit HBV DNA as described herein.

HBsAg = HBsAg assay (chemiluminescence immunoassay of secreted HBsAg in HepG2.2.15 culture supernatant); type: cell-based, HBV; conditions: HepG2.2.15 cells, CLIA kit
Procedure, shortened: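 IC50 came from dose-response curves of HBsAg in culture supernatant, measured semi-quantitatively by chemiluminescent immunoassay. The HBV-producing HepG2.2.15 line was dosed in duplicate with a three-fold compound dilution series, with DMSO at 1% final and DMSO alone as the no-drug control.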

[1] = HBsAg secretion reduced by 50% vs no drug control
[2] = Hepatitis B virus, HepG2.2.15, 144 h
[3] = Hepatitis B virus, HepG2.2.15, HBsAg secretion reduced by 50% vs no drug control

Structure (SMILES) | IC50 (HBV DNA) [nM] | IC50 (HBsAg; [1]) [nM] | IC50 (HBV DNA; [2]) [nM] | IC50 (HBsAg; [3]) [nM]
CCOc1cc2c(cc1OCC)-c1cc(=O)c(C(=O)O)cn1C(CC)C2 (single isomer, unassigned; (+)) [Example 6, (+)-9,10-diethoxy-6-ethyl-2-oxo-6,7-dihydrobenzo[a]quinolizine-3-carboxylic acid] | 6 | – | – | –
CCC1Cc2cc(OCC(F)(F)F)c(OC)cc2-c2cc(=O)c(C(=O)O)cn21 (single isomer, unassigned; (+)) [Example 11, (+)-6-ethyl-10-methoxy-2-oxo-9-(2,2,2-trifluoroethoxy)-6,7-dihydrobenzo[a]quinolizine-3-carboxylic acid] | – | 17 | 4 | –
CCCOc1cc2c(cc1OC)-c1cc(=O)c(C(=O)O)cn1C(CC)C2 (single isomer, unassigned; (+)) [Example 79, (+)-6-ethyl-10-methoxy-2-oxo-9-propoxyl-6,7-dihydrobenzo[a]quinolizine-3-carboxylic acid] | – | 4 | 2 | –
COc1cc2c(cc1OC)-c1cc(=O)c(C(=O)O)cn1C(C(C)C)C2 (single isomer, unassigned; (+)) [Example 99, (+)-6-isopropyl-9,10-dimethoxy-2-oxo-6,7-dihydrobenzo[a]quinolizine-3-carboxylic acid] | – | 16 | 3 | –
COCCOc1cc2c(cc1Cl)-c1cc(=O)c(C(=O)O)cn1C(C(C)C)C2 (single isomer, unassigned; (+)) [Example 108, (+)-10-chloro-6-isopropyl-9-(2-methoxyethoxy)-2-oxo-6,7-dihydrobenzo[a]quinolizine-3-carboxylic acid] | – | 3 | 2 | –
COCCCOc1cc2c(cc1Cl)-c1cc(=O)c(C(=O)O)cn1C(C(C)C)C2 (single isomer, unassigned; (+)) [Example 121, (+)-10-chloro-6-isopropyl-9-(3-methoxypropoxy)-2-oxo-6,7-dihydrobenzo[a]quinolizine-3-carboxylic acid] | – | 2 | < 0.1 | –
COCCCOc1cc2c(cc1OC)-c1cc(=O)c(C(=O)O)cn1C(C(C)C)C2 (single isomer, unassigned; (+)) [Example 124, (+)-10-methoxy-6-isopropyl-9-(3-methoxypropoxy)-2-oxo-6,7-dihydrobenzo[a]quinolizine-3-carboxylic acid] | – | 2 | < 0.1 | –
COc1cc2c(cc1OCCN1CCOCC1)CC(C(C)(C)C)n1cc(C(=O)O)c(=O)cc1-2 (single isomer, unassigned; (+)) [Example 190, (+)-6-tert-butyl-10-methoxy-9-(2-morpholinoethoxy)-2-oxo-6,7-dihydrobenzo[a]quinolizine-3-carboxylic acid] | – | 6 | 2 | –
COCCCOc1cc2c(cc1Cl)-c1cc(=O)c(C(=O)O)cn1C(C1(C)CC1)C2 (single isomer, unassigned; (+)) [Example 206, (+)-10-chloro-9-(3-methoxypropoxy)-6-(1-methylcyclopropyl)-2-oxo-6,7-dihydrobenzo[a]quinolizine-3-carboxylic acid] | – | 1 | 0.1 | –
COCCCOc1cc2c(cc1OC)-c1cc(=O)c(C(=O)O)cn1C(C1(C)CC1)C2 (single isomer, unassigned; (+)) [Example 209, (+)-10-methoxy-9-(3-methoxypropoxy)-6-(1-methylcyclopropyl)-2-oxo-6,7-dihydrobenzo[a]quinolizine-3-carboxylic acid] | – | 1 | 0.3 | –
CCOc1cc2c(cc1Cl)-c1cc(=O)c(C(=O)O)cn1C(CC)C2 (single isomer, unassigned; (-)) [Example 119, (−)-10-chloro-9-ethoxy-6-ethyl-2-oxo-6,7-dihydrobenzo[a]quinolizine-3-carboxylic acid] | – | 330 | 2 | –
CCOc1cc2c(cc1OCC)-c1cc(=O)c(C(=O)O)cn1C(CC)C2 (centres unmarked) [Example 5, 9,10-diethoxy-6-ethyl-2-oxo-6,7-dihydrobenzo[a]quinolizine-3-carboxylic acid] | – | 18 | 9 | –
CCC1Cc2cc(OCC3CC3)c(OC)cc2-c2cc(=O)c(C(=O)O)cn21 (centres unmarked) [Example 30, 9-(cyclopropylmethoxy)-6-ethyl-10-methoxy-2-oxo-6,7-dihydrobenzo[a]quinolizine-3-carboxylic acid] | – | 24 | 2 | –
CCC1Cc2cc(OCC(C)C)c(OC)cc2-c2cc(=O)c(C(=O)O)cn21 (centres unmarked) [Example 33, 6-ethyl-9-isobutoxy-10-methoxy-2-oxo-6,7-dihydrobenzo[a]quinolizine-3-carboxylic acid] | – | 8 | 3 | –
CCOc1cc2c(cc1OCC)-c1cc(=O)c(C(=O)O)cn1CC2 [Example 76, 9,10-diethoxy-2-oxo-6,7-dihydrobenzo[a]quinolizine-3-carboxylic acid] | – | – | 130 | 350
CCCOc1cc2c(cc1OC)-c1cc(=O)c(C(=O)O)cn1C(CC)C2 (centres unmarked) [Example 78, 6-ethyl-10-methoxy-2-oxo-9-propoxy-6,7-dihydrobenzo[a]quinolizine-3-carboxylic acid] | 4 | – | – | –
COc1cc2c(cc1OCCCn1cncn1)CC(C(C)(C)C)n1cc(C(=O)O)c(=O)cc1-2 (centres unmarked) [Example 217, 6-tert-butyl-10-methoxy-2-oxo-9-[3-(1,2,4-triazol-1-yl)propoxy]-6,7-dihydrobenzo[a]quinolizine-3-carboxylic acid] | – | – | – | 34
COc1cc2c(cc1OCCCC(=O)O)CC(C(C)(C)C)n1cc(C(=O)O)c(=O)cc1-2 (centres unmarked) [Example 218, 6-tert-butyl-9-(3-carboxypropoxy)-10-methoxy-2-oxo-6,7-dihydrobenzo[a]quinolizine-3-carboxylic acid] | – | – | – | 145
